The record followed here is US6683077B2, “2-Amino-benzoxazinones for the treatment of viral infections” (G.D. Searle & Co., priority 1996, dated 2004).

Series [1] concerns human foreskin fibroblasts.
Series [2] has as its target T1, Bovine pancreas α-chymotrypsin (Bos taurus, UniProt P00766, DEL14-15/DEL147-148).
T1 construct: Bovine pancreas α-chymotrypsin (type II, Sigma); purchased Sigma type II; host or cells: bovine pancreas
Kind of series: Chymotrypsin assay. It counts as biochemical. The procedure:
The chymotrypsin assay was modified from the method of Delmar et al [Anal. Biochem., 99, 316-320 (1979)]. Bovine pancreas α-chymotrypsin (type II, Sigma) was dissolved in 0.001 N HCl at 1 mg/ml and further diluted 1/600 in assay buffer (0.1 M Tris, pH 7.8, containing 0.1 M CaCl2) before use. 20 μl of test compound in DMSO (or DMSO alone), 100 μl of assay buffer and 30 μl of enzyme were added to […], mixed and pre-incubated for 30 minutes at ambient temperature. Reaction was initiated by addition of 50 Al of 0.2 mM N-succinyl-Ala-Ala-Pro-Phe-p-nitroanilide (Sigma; 2 mM in DMSO diluted 1/10 in assay buffer before use). The increase in absorbance at 405 nm was monitored for 10 minutes with a Biotek EL340 plate reader.

In another series the test system is HCMV (strain AD169). The series can be described thus: HCMV ELISA antiviral assay (viral antigen). As to conditions: Human betaherpesvirus 5, Fibroblast; HCMV AD169 in human foreskin fibroblasts; value before the slash; unit inferred; read-out: Antiviral Activity Elisa, first value (EC50). In kind it is cell-based, human cytomegalovirus. The text has this:
These complimentary assays tested the ability of a compound to inhibit the production of new virus and the toxicity of the compound to she host cells. It was important that both assays be performed simultaneously in order to compare the results directly since, toxicity may indirectly reduce viral yield.
Viral yield was estimated by measuring the amount of a viral antigen produced 4 days post infection with a monoclonal antibody to an abundant “immediate early” viral protein. An enzyme-linked (horseradish peroxidase) secondary antibody specific to the primary (mouse) antibody was urged to measure the amount of viral antigen. Test compounds were diluted to 2-times the desired final concentration in DMEM+5% FBS. One hundred microliters of this solution was placed in each well of a 96-well plate. This was performed once for the antiviral 96-well plate and again for a cytotoxicity plate. Two controls were also included for both plates; a no drug control and a no virus control. Ganciclovir was routinely tested in antiviral and cytotoxicity plates as a reference standard because it has known antiviral activity for HCMV. All cells were prepared by harvesting human foreskin fibroblasts, with trypsin and re-suspending at a concentration of 5×10^5 cells per ml in DMEM. Infected cells were prepared by infecting these with HCMV (strain AD169) at a multiplicity of infection=0.2. One hundred microliters of uninfected cells (5×10^4 cells) were added to the appropriate wells of the cytotoxicity plate. In a similar manner 100 μl of infected cells (5×10^4 cells) were added to the appropriate wells of the antiviral plate. Additionally, uninfected cells not treated with test compound were included as controls on the antiviral plate. Plates were incubated for 96 hours at 37° C. in 5% CO2 atmosphere and processed to measure the amount of viral antigen and toxicity.
The following was performed on the antiviral plate only. Media was removed and cells were fixed with 1:1 acetone:methanol for 15 minutes at −20° C. Fixative was removed and cells were washed once with PBS containing 0.05% Tween20. In order to block nonspecific binding of antibodies, each well was incubated with PBS containing 3% (w/v) bovine serum albumin (BSA) for 1 hour at 22° C. The blocking solution was removed and the cells were washed once with PBS containing 0.05% Tween20 before incubating with 1:100 dilution of primary antibody in PBS containing 3% BSA for 2 hours at 22° C. The primary antibody was a monoclonal antibody (mouse source) specific to the immediate early nuclear antigen of HCMV and was commercially available (Dupont). The 1° antibody solution was removed and the plate was rinsed 5 times with PBS containing 1% (v/v) Triton X-100 (PBST) before incubating with secondary antibody diluted 1:1000 in PBS containing 3% BSA for 2 hours at 22° C. The secondary antibody (goat source) recognized the murine-specific determinants of the 1° antibody and was covalently linked to horseradish peroxidase (Sigma). The plate was rinsed 5 times with PBST and once with deionized water before adding 100 μl TMB substrate solution and incubating 30 minutes at 22° C. The reaction was stopped by adding 100 μL of phosphoric acid and the OD at 450 nm recorded. TMB (3,3′,5,5′ tetramethylbenzidine) was the substrate for the horseradish peroxidase linked to the 2° antibody. It was made from a commercially available kit (Kirkegaard & Perry Laboratories, Inc.). Antiviral activity was calculated by comparing the amount of viral antigen produced in drug treated wells with that produced in wells absent of drug.

Series [3] concerns the target T2, Human leukocyte elastase (HLE) (Homo sapiens, UniProt P08246).
T2 construct: gift of R. Senior, Washington University
T2 sequence (P08246 30-267): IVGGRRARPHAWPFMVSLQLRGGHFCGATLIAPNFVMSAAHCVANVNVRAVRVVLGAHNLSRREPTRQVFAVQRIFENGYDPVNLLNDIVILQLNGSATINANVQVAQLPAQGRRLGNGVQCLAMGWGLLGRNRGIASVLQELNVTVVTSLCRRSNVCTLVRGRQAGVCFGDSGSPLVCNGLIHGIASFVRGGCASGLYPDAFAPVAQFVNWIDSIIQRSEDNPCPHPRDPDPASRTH
Kind of series: Human leukocyte elastase assay. It counts as biochemical. As to conditions: @ 100 (concentration unit not given). A digest of the protocol: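 HLE in 0.2 M Tris, pH 8.0, was preincubated 30 minutes at ambient temperature with compound in DMSO. The reaction was started with methoxysuccinyl-Ala-Ala-Pro-Val-p-nitroanilide (2.5 mM added solution), and absorbance increase at 405 nm was monitored for 10 minutes.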

Series [4] deals with HCMV protease (assemblin) (Human cytomegalovirus, UniProt P16753). Kind of series: Enzymatic assay for HCMV protease (assemblin) inhibitors. In kind it is biochemical.
Series [5] has as its system HCMV engineered virus RC256. Kind of series: microbe, parasite or virus in culture. In kind it is cell-based, human cytomegalovirus. As to conditions: Human betaherpesvirus 5, Fibroblast, read-out: Antiviral Activity RC256, first value (EC50).

Sequence of HCMV protease (assemblin) (P16753 1-256): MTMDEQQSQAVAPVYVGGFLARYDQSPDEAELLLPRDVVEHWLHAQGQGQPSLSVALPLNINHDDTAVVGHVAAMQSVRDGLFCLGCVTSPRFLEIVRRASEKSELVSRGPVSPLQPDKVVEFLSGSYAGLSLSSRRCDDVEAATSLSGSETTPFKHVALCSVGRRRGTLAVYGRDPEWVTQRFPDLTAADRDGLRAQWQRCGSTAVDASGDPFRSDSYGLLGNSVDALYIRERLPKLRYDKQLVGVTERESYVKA

As for “1,1-Dimethylethyl[2-[[1S-[(4-methoxyphenyl)methyl]-2-oxo-2-[[2-(2-pyridinyl)ethyl]amino]ethyl]amino]-5-methyl-4-oxo-4H-3,1-benzoxazin-6-yl]carbamate [Example 6hh]”, the “Antiviral Activity RC256, second value (cytotoxicity)” value in series [1] was 60. The “Chymotrypsin, % @ concentration” value in series [2] (@ 10 (concentration unit not given)) came out at 21% @ 10.
As for “3,5-Diiodo-N-(5-methyl-(3,5-diiodo)2-yl)-L-tyrosine, methyl ester [Example 1q]”, the “Antiviral Activity RC256, second value (cytotoxicity)” value in series [1] is 70.
As to `COC(=O)[C@H](C)Nc1nc2cccc(C)c2c(=O)o1` [Example 1b, N-(5-Methyl-4-oxo-4H-3,1-benzoxazin-2-yl)-L-alanine, methyl ester], in the series with HCMV (strain AD169), the EC50 stood at 72 µM.
Turning to `Cc1cccc2nc(N[C@@H](C)c3ccccc3)oc(=O)c12` [Example 3b, 5-Methyl-2-[[(1S)-1-phenylethyl]amino]-4H-3,1-benzoxazin-4-one], the EC50 in the series on HCMV (strain AD169) came to 27 µM.
The same measure, in the same setting: next, `Cc1c(NC(=O)OC(C)(C)C)ccc2nc(N[C@@H](C)C(=O)N(C)Cc3ccccc3)oc(=O)c12` [Example 6aa, N-[6-[[(1,1-Dimethylethoxy)carbonyl]amino]-5-methyl-4-oxo-4H-3,1-benzoxazin-2-yl]-L-alanine, N-methyl-N-phenylmethylamide]: 75 µM; `COC(=O)[C@H](Cc1cscn1)Nc1nc2ccc(NC(=O)OC(C)(C)C)c(C)c2c(=O)o1` [Example 6e, N-[6-[[(1,1-Dimethylethoxy)carbonyl]amino]-5-methyl-4-oxo-4H-3,1-benzoxazin-2-yl]-L-thiazol-4-yl-alanine, methyl ester]: 58 µM.
The same measure, in the same setting: the same measure for `Cc1c(NC(=O)OC(C)(C)C)ccc2nc(N[C@@H](C)C(=O)N3CCCC3)oc(=O)c12` [Example 6g, N-[6-[[(1,1-Dimethylethoxy)carbonyl]amino]-5-methyl-4-oxo-4H-3,1-benzoxazin-2-yl]-L-alanine, pyrrolidineamiae]: 100 µM.
Take `COCC(=O)Nc1ccc2nc(N[C@@H](Cc3ccccc3)C(=O)OC)oc(=O)c2c1C` [Example 11c, N-[6-[[(Methoxymethyl)carbonyl]amino]-5-methyl-4-oxo-4H-3,1-benzoxazin-2-yl]-L-phenylalanine, methyl ester]: the EC50 with HCMV (strain AD169) amounted to 77 µM. For the same compound, in series [3], the “HLE, % @ concentration” value worked out at 83% @ 100.
Consider `Cc1c(NC(=O)CN(C)C)ccc2nc(N[C@@H](C)c3ccccc3)oc(=O)c12` [Example 11m, 5-Methyl-6-[[(dimethylaminomethyl)carbonyl]amino]-2-[[(1S)-phenylethyl]amino]-4H-3,1-benzoxazin-4-one], for which the “Assemblin Protease, % @ concentration” value in series [4] (@ 1 (concentration unit not given)) is listed as 67% @ 1.0. Further, the concentration for a half-maximal effect (EC50) with HCMV (strain AD169) amounted to 88 µM. The “HLE, % @ concentration” value in series [3] worked out at 37% @ 100.
In the case of `COc1ccc(C[C@H](Nc2nc3ccc(NC(=O)Oc4ccccc4)c(C)c3c(=O)o2)C(=O)N(C)Cc2ccccc2)cc1` [Example 11q, Phenyl[2-[[1S-[(4-methoxyphenyl)methyl]-2-[methyl(phenylmethyl)amino]-2-oxcethyl]amino]-5-methyl-4H-3,1-benzoxazin-6-yl]carbamate], the IC50 in series [4] was found to be 0.6 µM; in series [2], 2.4 µM. Also, the concentration giving a half-maximal response (EC50) in series [5] turned out to be 18 µM.
